Like-named read-outs stand apart in the source and are kept apart here.
Legend:
[1] = molecular target: T1, TARC binding to Hut78 cells (Homo sapiens, UniProt P51679); assay: Inhibitory activity on binding of [125I]-TARC to Hut78 cells; conditions: for inhibition at 1 µM: read-out: The Binding Inhibitory Rates at 1 μmol/L (%)
T1 construct: host or cells: Hut78 cells (whole cells)
T1 sequence (P51679 1-360): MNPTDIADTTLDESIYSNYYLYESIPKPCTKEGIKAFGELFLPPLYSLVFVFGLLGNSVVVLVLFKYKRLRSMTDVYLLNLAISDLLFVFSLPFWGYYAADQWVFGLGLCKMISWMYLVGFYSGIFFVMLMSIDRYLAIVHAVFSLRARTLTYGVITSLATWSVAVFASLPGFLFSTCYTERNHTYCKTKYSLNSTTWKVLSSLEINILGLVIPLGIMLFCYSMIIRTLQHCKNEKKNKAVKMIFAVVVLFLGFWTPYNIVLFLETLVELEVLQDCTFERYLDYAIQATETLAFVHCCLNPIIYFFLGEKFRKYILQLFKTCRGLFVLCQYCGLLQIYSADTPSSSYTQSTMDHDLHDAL
Procedure: Inhibitory Activity on Binding of [^125I]-TARC to Hut78 Cells
The RPMI-1640 medium (Sigma-Aldrich Japan) containing 20 mmol/L HEPES [4-(2-hydroxyethyl)-1-piperazinylethanesulfonic acid; HEPES, Nacalai Tesque, Inc.] and 0.1 w/v % bovine serum albumin (SEIKAGAKU CORPORATION) was adjusted to pH 7.0 with sodium hydrogencarbonate (Wako Pure Chemical Industries, Ltd.) to yield a binding/wash buffer. In a 96-well round-bottomed plate (Corning Costar Corporation) were placed 60 μL of a suspension of Hut78 cells (ATCC No. TIB-161) (3×10^5 cells) in the binding/wash buffer, 20 μL of a solution of a test compound and 20 μL of a solution of 810 Bq of [^125I]-TARC (Amersham Biosciences K.K.) diluted with the binding/wash buffer up to the total aliquot of 100 μL, followed by reaction at room temperature for two hours. The solution of the test compound had been prepared by dissolving the test compound in dimethyl sulfoxide (Nacalai Tesque, Inc.) to a concentration of 10 mmol/L, and diluting the solution with the binding/wash buffer to a series of concentrations. The nonspecific binding was determined by a binding assay in the presence of a sufficient amount of unlabeled TARC. The total binding was defined as a binding in the case where dimethyl sulfoxide (Nacalai Tesque, Inc.) was added, instead of the test compound, in the same concentration (0.1 v/v %). After binding [^125I]-TARC to Hut78 cells, 50 μL of a polyethyleneimine solution (Nacalai Tesque, Inc.) diluted to 0.3 w/v % with the binding/wash buffer was added each of wells of a glass filter (Unifilter GF/B96, Packard BioScience Company), was rapidly filtrated using Filtermate 196 (Packard BioScience Company) and washed with the binding/wash buffer at 4° C. to thereby separate the radioactive ligand which is not bound to the cells. Microscinti 20 (Packard BioScience Company) was placed in each well at 50 μL/well, and the radioactivity on the glass filter was determined using Topcount NXT™ (Packard BioScience Company). The binding inhibitory rates (%) of the test compounds were determined by calculation according to the following equation: [formula] Total binding: [^125I]-TARC binding radioactivity without addition of the test compound Binding upon addition of test compound: [^125I]-TARC binding radioactivity at respective concentration upon addition of test compound
Nonspecific binding: [^125I]-TARC binding radioactivity upon addition of unlabeled TARC

[2] = system: CD4-positive T cells and eosinophils in the bronchoalveolar lavage fluid; assay: Inhibitory activities on antigen-induced cellular infiltration (ovalbumin-sensitized mice, bronchoalveolar lavage fluid); type: in vivo, BALB/c mice
Procedure: Inhibitory Activities on Antigen-Induced Cellular Infiltration and Cytokine Production
BALB/c mice were sensitized by intraperitoneally administrating 50 μg of ovalbumin (Sigma-Aldrich Japan) and 1 mg of aluminum hydroxide (Wako Pure Chemical Industries, Ltd.) and further sensitized in the same manner on the 7th day from the first sensitization (0 day). From on the 23rd day, the mice were allowed to inhale a 1% ovalbumin physiological saline solution [prepared by dissolving ovalbumin in physiological saline (Otsuka Pharmaceutical Co., Ltd.) to a concentration 1%] using Supersonic Nebulizer NE-U 12 (OMRON Corporation) for 30 minutes once per 2 days (antigen nebulization). DMSO (Kanto Kagaku), Tween 80 (Wako Pure Chemical Industries), and 10 mmol/L acetic acid buffer containing 0.9% sodium chloride were mixed at a ratio of 5 to 5 to 90, whereby a liquid (an administration solvent) was prepared. Each test compound was dissolved in the administration solvent, whereby a solution for subcutaneous administration was prepared. The mice were grouped into test compound-administered groups and a control group. The test compound was subcutaneously administered to the mice of each of the test compound-administered groups at a dose of 30 mg/kg and the administration solvent was subcutaneously administered to the mice of the control group 30 minutes prior to the fourth antigen nebulization and after 4 hours from the fourth antigen nebulization. 8 hours after the fourth antigen nebulization, the bronchoalveolar lavage of each mouse was performed to obtain a bronchoalveolar lavage fluid. The number of CD4-positive T cells and eosinophils in the bronchoalveolar lavage fluid were counted. 10 mice were subjected to the each group in the test.

[3] = test compound 1 μmol/L, [125I]-TARC, Hut78 cells, room temperature, two hours

Molecule	The Binding Inhibitory Rates at 1 μmol/L (%) [1, 3]	inhibition at 1 µM [1]	inhibition at 1 µM [1, 3]	also measured
4-(2,4-difluorobenzylamino)-5-(2,4-difluorophenyl)-2-[4-(1-methylpiperidinio)piperidino]pyrimidine iodide [Compound 72]	96%			
CC1CCCN(C2CCN(c3ncc(-c4ccc(F)cc4F)c(NCc4ccc(F)cc4F)n3)CC2)C1 (centres unmarked) [Compound 1, 4-(2,4-difluorobenzylamino)-5-(2,4-difluorophenyl)-2-[4-(3-methylpiperidino)piperidino]pyrimidine]		91%		
CC1CCCCN1C1CCN(c2ncc(-c3ccc(F)cc3F)c(NCc3ccc(F)cc3F)n2)CC1 (centres unmarked) [Compound 3, 4-(2,4-difluorobenzylamino)-5-(2,4-difluorophenyl)-2-[4-(2-methylpiperidino)piperidino]pyrimidine]		93%		
NC(=O)C1CCCN(C2CCN(c3ncc(-c4ccc(F)cc4F)c(NCc4ccc(F)cc4F)n3)CC2)C1 (centres unmarked) [Compound 8, 2-[4-(3-carbamoylpiperidino)piperidino]-4-(2,4-difluorobenzylamino)-5-(2,4-difluorophenyl)pyrimidine]			92%	number of eosinophils in a bronchoalveolar lavage fluid obtained from each mouse ([2]; 30 mg/kg subcutaneously 30 minutes prior to and 4 hours after fourth antigen nebulization, lavage 8 hours after, mean±standard error, control (1.5±0.1)×10^5): (0.6±0.1)×10^5; number of CD4-positive T cells in a bronchoalveolar lavage fluid obtained from each mouse ([2]; 30 mg/kg subcutaneously 30 minutes prior to and 4 hours after fourth antigen nebulization, lavage 8 hours after, mean±standard error, control (1.9±0.2)×10^4): (0.6±0.1)×10^4; number of CD4-positive T cells less than that of the control group ([2]; 30 mg/kg subcutaneously, bronchoalveolar lavage fluid, P<0.0001, Aspin-Welch test): 68%; number of eosinophils less than that of the control group ([2]; 30 mg/kg subcutaneously, bronchoalveolar lavage fluid, P<0.0001, Student's test): 57%
CC1CCCN(C2CCN(c3ncc(-c4ccc(F)cc4F)c(NCc4c(F)cccc4F)n3)CC2)C1 (centres unmarked) [Compound 15, 4-(2,6-difluorobenzylamino)-5-(2,4-difluorophenyl)-2-[4-(3-methylpiperidino)piperidino]pyrimidine]		90%		
Fc1ccc(-c2cnc(N3CCC(N4CCCCC4)CC3)nc2NCc2c(F)cccc2F)c(F)c1 [Compound 40, 4-(2,6-difluorobenzylamino)-5-(2,4-difluorophenyl)-2-(4-piperidinopiperidino)pyrimidine]			89%	
Fc1ccc(-c2cnc(N3CCC(N4CCCCC4)CC3)nc2NCc2ccc(Cl)cc2F)c(F)c1 [Compound 58, 4-(4-chloro-2-fluorobenzylamino)-5-(2,4-difluorophenyl)-2-(4-piperidinopiperidino)pyrimidine]			81%	
Fc1ccc(-c2cnc(N3CCC(N4CCCCC4)CC3)nc2NCc2c(F)cccc2Cl)c(F)c1 [Compound 61, 4-(2-chloro-6-fluorobenzylamino)-5-(2,4-difluorophenyl)-2-(4-piperidinopiperidino)pyrimidine]			82%	
CC[N+]1(C2CCN(c3ncc(-c4ccc(F)cc4F)c(NCc4ccc(F)cc4F)n3)CC2)CCCCC1.[I-] [Compound 73, 4-(2,4-difluorobenzylamino)-5-(2,4-difluorophenyl)-2-[4-(1-ethylpiperidinio)piperidino]pyrimidine iodide]	99%			
C=CC[N+]1(C2CCN(c3ncc(-c4ccc(F)cc4F)c(NCc4ccc(F)cc4F)n3)CC2)CCCCC1.[Br-] [Compound 75, 2-[4-(1-allylpiperidinio)piperidino]-4-(2,4-difluorobenzylamino)-5-(2,4-difluorophenyl)pyrimidine bromide]	97%			

Reference: patent publication US20060194811A1, “Pyrimidine derivatives” (KYOWA HAKKO KOGYO CO., LTD., priority 2003, published 2006)
